Measurements from US20230146395A1, “Substituted Pyrimidines and Uses Thereof” (Verge Analytics, Inc., priority 2020, published 2023).
Where a name gives a salt, the structure may show the parent alone.

target: T1, Full length human recombinant PIKFYVE (Homo sapiens, UniProt Q9Y2I7); test: Inhibition of PIKfyve (microfluidic electrophoresis kinase assay, PI3P/PS substrate); format: biochemical; settings: 12 concentrations
T1 construct: Full length human recombinant PIKFYVE; purchased Carna Biosciences (Kobe, Japan); host or cells: baculovirus expression system
T1 sequence (Q9Y2I7 whole entry): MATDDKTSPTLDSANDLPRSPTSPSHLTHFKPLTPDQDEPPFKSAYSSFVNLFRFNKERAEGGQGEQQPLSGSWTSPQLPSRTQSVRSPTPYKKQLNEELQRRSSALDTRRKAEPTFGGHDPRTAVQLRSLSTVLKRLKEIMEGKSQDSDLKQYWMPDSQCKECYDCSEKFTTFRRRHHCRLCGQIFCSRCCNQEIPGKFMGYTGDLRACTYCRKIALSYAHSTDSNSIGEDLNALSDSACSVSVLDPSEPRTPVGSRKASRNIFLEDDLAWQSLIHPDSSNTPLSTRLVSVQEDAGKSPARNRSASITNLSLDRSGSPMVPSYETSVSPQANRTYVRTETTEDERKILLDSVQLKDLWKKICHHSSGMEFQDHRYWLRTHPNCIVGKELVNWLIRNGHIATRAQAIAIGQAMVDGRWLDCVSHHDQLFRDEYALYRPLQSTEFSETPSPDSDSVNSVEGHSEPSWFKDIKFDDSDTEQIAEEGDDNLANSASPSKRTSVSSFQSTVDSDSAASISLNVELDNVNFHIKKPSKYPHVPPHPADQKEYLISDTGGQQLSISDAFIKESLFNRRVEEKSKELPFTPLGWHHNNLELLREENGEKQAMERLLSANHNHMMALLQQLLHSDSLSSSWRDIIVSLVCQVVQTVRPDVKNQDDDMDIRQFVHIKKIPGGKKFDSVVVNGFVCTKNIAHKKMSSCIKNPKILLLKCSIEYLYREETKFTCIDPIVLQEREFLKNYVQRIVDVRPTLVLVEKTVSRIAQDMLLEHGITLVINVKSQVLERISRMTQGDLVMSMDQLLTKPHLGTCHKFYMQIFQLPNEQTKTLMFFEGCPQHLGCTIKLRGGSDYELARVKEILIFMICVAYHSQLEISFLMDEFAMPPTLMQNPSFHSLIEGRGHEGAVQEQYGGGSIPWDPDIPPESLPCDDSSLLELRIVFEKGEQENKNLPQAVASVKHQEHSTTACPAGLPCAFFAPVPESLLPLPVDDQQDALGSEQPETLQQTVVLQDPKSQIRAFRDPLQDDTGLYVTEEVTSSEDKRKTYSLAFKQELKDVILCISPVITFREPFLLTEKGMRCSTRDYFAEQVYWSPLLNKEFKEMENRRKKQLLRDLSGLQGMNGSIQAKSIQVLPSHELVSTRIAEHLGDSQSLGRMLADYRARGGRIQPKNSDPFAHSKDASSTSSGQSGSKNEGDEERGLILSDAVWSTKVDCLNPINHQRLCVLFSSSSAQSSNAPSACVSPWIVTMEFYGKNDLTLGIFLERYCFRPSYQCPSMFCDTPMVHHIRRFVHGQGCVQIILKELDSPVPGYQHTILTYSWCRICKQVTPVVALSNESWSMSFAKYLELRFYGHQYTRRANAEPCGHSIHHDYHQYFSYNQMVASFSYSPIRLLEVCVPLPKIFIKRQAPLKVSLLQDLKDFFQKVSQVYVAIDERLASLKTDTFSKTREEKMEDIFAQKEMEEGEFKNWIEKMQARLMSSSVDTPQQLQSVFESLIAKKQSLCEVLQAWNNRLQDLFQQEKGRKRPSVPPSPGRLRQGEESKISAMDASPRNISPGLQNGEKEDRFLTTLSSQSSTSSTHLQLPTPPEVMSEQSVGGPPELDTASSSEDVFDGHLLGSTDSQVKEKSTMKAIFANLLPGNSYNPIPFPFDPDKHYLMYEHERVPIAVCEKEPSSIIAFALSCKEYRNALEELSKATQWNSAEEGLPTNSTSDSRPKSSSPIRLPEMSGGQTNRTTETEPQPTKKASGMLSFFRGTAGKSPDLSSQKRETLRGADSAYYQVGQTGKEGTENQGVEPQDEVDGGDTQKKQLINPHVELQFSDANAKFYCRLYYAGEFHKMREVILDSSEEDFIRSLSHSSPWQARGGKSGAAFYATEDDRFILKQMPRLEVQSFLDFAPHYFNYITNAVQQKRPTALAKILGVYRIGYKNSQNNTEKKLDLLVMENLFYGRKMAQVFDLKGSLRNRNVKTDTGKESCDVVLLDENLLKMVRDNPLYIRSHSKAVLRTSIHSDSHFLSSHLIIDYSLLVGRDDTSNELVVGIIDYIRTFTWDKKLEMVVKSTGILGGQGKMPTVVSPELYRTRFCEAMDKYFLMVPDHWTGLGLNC
Protocol: Full length human recombinant PIKFYVE expressed in baculovirus expression system as N-terminal GST-fusion protein (265 kDa) was obtained from Carna Biosciences (Kobe, Japan). The kinase substrate was prepared by mixing and sonicating fluorescently-labeled phosphatidylinositol 3-phosphate (PI3P) with phospho-L-serine (PS) at a 1:10 ratio in 50 mM HEPES buffer pH 7.5.
The kinase reactions were assembled in 384-well plates (Greiner) in a total volume of […] as follows. Kinase protein was pre-diluted in an assay buffer comprising 25 mM HEPES, pH 7.5, 1 mM DTT, 2.5 mM MgCl2, and 2.5 mM MnCl2, and 0.005% Triton X-100, and dispensed into a 384-well plate (10 μL per well). Test compounds were serially pre-diluted in DMSO and added to the protein samples by acoustic dispensing (Labcyte Echo). The concentration of DMSO was equalized to 1% in all samples. All test compounds were tested at 12 concentrations. Apilimod was used as a reference compound and was tested in identical manner in each assay plate. Control samples (0%-inhibition, in the absence of inhibitor, DMSO only) and 100%-inhibition (in the absence of enzyme) were assembled in replicates of four and were used to calculate %-inhibition in the presence of compounds. The reactions were initiated by addition of 10 μL of 2×PI3P/PS substrate supplemented with ATP. The final concentration of enzyme was 2 nM, the final concentration of ATP was […], and the final concentration of PI3P/PS substrate was 1 μM (PI3P). The kinase reactions were allowed to proceed for 3 h at room temperature. Following incubation, the reactions were quenched by addition of […] of termination buffer (100 mM HEPES, pH 7.5, 0.01% Triton X-100, 20 mM EDTA). Terminated plates were analyzed on a microfluidic electrophoresis instrument (Caliper LabChip® 3000, Caliper Life Sciences/Perkin Elmer). The change in the relative fluorescence intensity of the PI(3)P substrate and PI(3,5)P product peaks was measured. The activity in each test sample was determined as the product to sum ratio (PSR): P/(S+P), where P is the peak height of the product, and S is the peak height of the substrate. Percent inhibition (Pinh) was determined using the following equation:
Pinh=(PSR0% inh−PSRcompound)/(PSR0% inh−PSR100% inh)*100
in which PSRcompound is the product/sum ratio in the presence of compound, PSR0% inh is the product/sum ratio in the absence of compound, and the PSR100% inh is the product/sum ratio in the absence of the enzyme.

Row | SMILES | IC50 [nM]
1 | Cc1cccc(-c2cc(Nc3nc(N4CCOCC4)c4oc(C5CCN(C)CC5)cc4n3)[nH]n2)c1 [Compound 33] | 59
2 | Cc1cccc(-c2cc(Nc3nc(N4CCOCC4)c4oc(-c5cccnc5)cc4n3)[nH]n2)c1 [Compound 30, 4-morpholino-N-[5-(m-tolyl)-1H-pyrazol-3-yl]-6-(3-pyridyl)furo[3,2-d]pyrimidin-2-amine, hydrogen chloride] | 0.5
3 | c1ccc(-c2cc(Nc3nc(N4CCOCC4)c4oc(CN5CCCCC5)cc4n3)[nH]n2)cc1 [Compound 13] | 545
4 | CCNC(=O)c1cc2nc(-n3cc(-c4cccc(C)c4)cn3)nc(N3CCOCC3=O)c2o1 [Compound 149, N-ethyl-2-[4-(m-tolyl)pyrazol-1-yl]-4-(3-oxomorpholin-4-yl)furo[3,2-d]pyrimidine-6-carboxamide] | > 20000
5 | CN1CCCC(NC(=O)c2cc3nc(-n4cc(-c5ccccc5)cn4)nc(N4CCOCC4)c3o2)CC1 (centres unmarked) [Compound 176, N-(1-methylazepan-4-yl)-4-morpholino-2-(4-phenylpyrazol-1-yl)furo[3,2-d]pyrimidine-6-carboxamide] | 47.3
6 | CN1CCC(c2cc3nc(Nc4cc(-c5ccccc5)n[nH]4)nc(N4CCOCC4)c3o2)CC1 [Compound 32] | 116
7 | c1ccc(-c2coc(Nc3nc(N4CCOCC4)c4oc(-c5ccncc5)cc4n3)n2)cc1 [Compound 45, 4-morpholino-N-(4-phenyloxazol-2-yl)-6-(4-pyridyl)furo[3,2-d]pyrimidin-2-amine, hydrogen chloride] | 48
8 | Cn1ccc(-c2cc3nc(-n4ccc(-c5ccccc5)n4)nc(N4CCOCC4)c3o2)n1 [Compound 191, 6-(1-methylpyrazol-3-yl)-4-morpholino-2-(3-phenylpyrazol-1-yl)furo[3,2-d]pyrimidine] | 51.9
9 | Cc1cccc(-c2ccn(-c3nc(N4CCOCC4)c4oc(-c5cn[nH]c5)cc4n3)n2)c1 [Compound 219, 4-morpholino-2-[3-(m-tolyl)pyrazol-1-yl]-6-(1H-pyrazol-4-yl)furo[3,2-d]pyrimidine] | 0.4
10 | O=C(c1cc2nc(Nc3cc(-c4ccccc4)n[nH]3)nc(N3CCOCC3)c2o1)N1CCCCC1 [Compound 55, (4-morpholino-2-((3-phenyl-1H-pyrazol-5-yl)amino)furo[3,2-d]pyrimidin-6-yl)(piperidin-1-yl)methanone hydrochloride] | 51
11 | c1ccc(-c2cnn(-c3nc(N4CCOCC4)c4oc(-c5cccnc5)cc4n3)c2)cc1 [Compound 160, 4-morpholino-2-(4-phenylpyrazol-1-yl)-6-(3-pyridyl)furo[3,2-d]pyrimidine] | 61.7
12 | CN1CCC(c2cc3nc(Nc4cc(-c5ccncc5)n[nH]4)nc(N4CCOCC4)c3o2)C1 (centres unmarked) [Compound 40] | 2570
13 | Cc1c(-c2ccccn2)oc2c(N3CCOCC3)nc(-n3ccc(-c4ccccc4)n3)nc12 [Compound 179, 7-methyl-4-morpholino-2-(3-phenyl-1H-pyrazol-1-yl)-6-(pyridin-2-yl)furo[3,2-d]pyrimidine] | ≥ 10000
14 | Cc1cccc(-c2cc(Nc3nc(N4CCOCC4)c4oc(-c5ccncc5)cc4n3)[nH]n2)n1 [Compound 20, N-[5-(6-methyl-2-pyridyl)-1H-pyrazol-3-yl]-4-morpholino-6-(4-pyridyl)furo[3,2-d]pyrimidin-2-amine, hydrogen chloride] | 9
15 | c1ccc(-c2ccn(-c3nc(N4CCOCC4)c4oc(-c5ccncc5)cc4n3)n2)cc1 [Compound 158, 4-morpholino-2-(3-phenylpyrazol-1-yl)-6-(4-pyridyl)furo[3,2-d]pyrimidine] | 160
16 | c1ccc(-c2ccn(-c3nc(N4CCOCC4)c4oc(-c5cn[nH]c5)cc4n3)n2)cc1 [Compound 209, 4-morpholino-2-(3-phenylpyrazol-1-yl)-6-(1H-pyrazol-4-yl)furo[3,2-d]pyrimidine] | 9.8

Row | SMILES | IC50 [nM]
17 | CC(=O)NCCn1nc(-c2cc3nc(-n4cc(-c5cccc(C)c5)cn4)nc(N4CCOCC4)c3o2)cc1C [Compound 197, N-[2-[5-methyl-3-[4-morpholino-2-[4-(m-tolyl)pyrazol-1-yl]furo[3,2-d]pyrimidin-6-yl]pyrazol-1-yl]ethyl]acetamide] | 0.7
18 | c1ccc(-n2ccc(Nc3nc(N4CCOCC4)c4oc(-c5ccncc5)cc4n3)n2)cc1 [Compound 48, 4-morpholino-N-(1-phenylpyrazol-3-yl)-6-(4-pyridyl)furo[3,2-d]pyrimidin-2-amine, hydrogen chloride] | 32
19 | Cc1cc(-c2cc3nc(-n4ccc(-c5ccccc5)n4)nc(N4CCOCC4)c3o2)[nH]n1 [Compound 162, 6-(3-methyl-1H-pyrazol-5-yl)-4-morpholino-2-(3-phenylpyrazol-1-yl)furo[3,2-d]pyrimidine] | 17.8
20 | [2H]C([2H])([2H])c1cccc(-c2ccn(-c3nc(N4CCOCC4)c4oc(-c5ccn(C)n5)cc4n3)n2)c1 [Compound 216, 6-(1-methylpyrazol-3-yl)-4-morpholino-2-[3-[3-(trideuteriomethyl)phenyl]pyrazol-1-yl]furo[3,2-d]pyrimidine] | 0.8
21 | c1ccc(-c2cc(Nc3nc(N4CCOCC4)c4oc(CN5CCCC5)cc4n3)[nH]n2)cc1 [Compound 16] | 1000
22 | O=C(NC1CC1)c1cc2nc(-n3cc(-c4ccccc4)cn3)nc(N3CCOCC3)c2o1 [Compound 165, N-cyclopropyl-4-morpholino-2-(4-phenylpyrazol-1-yl)furo[3,2-d]pyrimidine-6-carboxamide] | 68.4
23 | COCCNC(=O)c1cc2nc(-n3cc(-c4ccccc4)cn3)nc(N3CCOCC3)c2o1 [Compound 118, N-(2-methoxyethyl)-4-morpholino-2-(4-phenyl-1H-pyrazol-1-yl)furo[3,2-d]pyrimidine-6-carboxamide] | 311
24 | c1cc(-c2cc(Nc3nc(N4CCOCC4)c4occc4n3)[nH]n2)ccn1 [Compound 10, 4-morpholino-N-(3-(pyridin-4-yl)-1H-pyrazol-5-yl)furo[3,2-d]pyrimidin-2-amine hydrochloride] | 6220
25 | c1ccc(-c2cc(Nc3nc(N4CCOCC4)c4oc(-c5ccccn5)cc4n3)[nH]n2)cc1 [Compound 26, 4-morpholino-N-(5-phenyl-1H-pyrazol-3-yl)-6-(2-pyridyl)furo[3,2-d]pyrimidin-2-amine, hydrogen chloride] | 0.1
26 | CN1CCC(NC(=O)c2cc3nc(-n4cc(-c5ccccc5)cn4)nc(N4CCOCC4)c3o2)C1 (centres unmarked) [Compound 170, N-(1-methylpyrrolidin-3-yl)-4-morpholino-2-(4-phenylpyrazol-1-yl)furo[3,2-d]pyrimidine-6-carboxamide] | 45.5
27 | Cc1cccc(-c2cnn(-c3nc(N4CCOCC4)c4oc(C(=O)NCCS(=O)(=O)N(C)C)cc4n3)c2)c1 [Compound 128, N-(2-(N,N-dimethylsulfamoyl)ethyl)-4-morpholino-2-(4-(m-tolyl)-1H-pyrazol-1-yl)furo[3,2-d]pyrimidine-6-carboxamide] | 66.2
28 | Cc1cccc(-c2cc(Nc3nc(N4CCOCC4)c4oc(-c5ccccn5)cc4n3)[nH]n2)c1 [Compound 27, 4-morpholino-N-[5-(m-tolyl)-1H-pyrazol-3-yl]-6-(2-pyridyl)furo[3,2-d]pyrimidin-2-amine, hydrogen chloride] | 1
29 | c1ccc(-c2cc3nc(Nc4cc(-c5ccncc5)n[nH]4)nc(N4CCOCC4)c3o2)nc1 [Compound 28, 4-morpholino-6-(pyridin-2-yl)-N-(3-(pyridin-4-yl)-1H-pyrazol-5-yl) furo[3,2-d] pyrimidin-2-aminehydrochloride] | 677
30 | c1cc(-c2cc3nc(Nc4cc(C5CCCC5)n[nH]4)nc(N4CCOCC4)c3o2)ccn1 [Compound 74, N-(5-cyclopentyl-1H-pyrazol-3-yl)-4-morpholino-6-(pyridin-4-yl)furo[3,2-d]pyrimidin-2-amine, hydrogen chloride] | 224
31 | Cc1cccc(-c2ccn(-c3nc(N4CCOCC4)c4oc(-c5ccccn5)c(C)c4n3)n2)c1 [Compound 122, 7-methyl-4-morpholino-6-(pyridin-2-yl)-2-(3-(m-tolyl)-1H-pyrazol-1-yl)furo[3,2-d]pyrimidine] | 12.7
32 | Cc1cccc(-c2cnn(-c3nc(N4CCOCC4)c4oc(-c5ccn(C)n5)cc4n3)c2)c1 [Compound 201, 6-(1-methylpyrazol-3-yl)-4-morpholino-2-[4-(m-tolyl)pyrazol-1-yl]furo[3,2-d]pyrimidine] | 0.5
